Data from PubChem BioAssay (NCI).
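Test compounds were applied to cells in 96-well plates for 48 hours at 5 doses. TGI is the concentration that stops growth completely.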

Tests used:
Assay in all cases: NCI-60 cell line screen, 48 h
ACHN renal = system: ACHN renal
HCC-2998 colon = system: HCC-2998 colon
HCT-116 colon = system: HCT-116 colon
HS 578T breast = system: HS 578T breast
PC-3 prostate = system: PC-3 prostate
SF-268 CNS = system: SF-268 CNS
SF-539 CNS = system: SF-539 CNS
SN12C renal = system: SN12C renal
SW-620 colon = system: SW-620 colon
UO-31 renal = system: UO-31 renal
UACC-257 melanoma = system: UACC-257 melanoma

Structure (SMILES) | TGI (ACHN renal) | TGI (HCC-2998 colon) | TGI (HCT-116 colon) | TGI (HS 578T breast) | TGI (PC-3 prostate) | TGI (SF-268 CNS) | TGI (SF-539 CNS) | TGI (SN12C renal) | TGI (SW-620 colon) | TGI (UO-31 renal) | TGI (UACC-257 melanoma)
COc1ccc(N2C(=O)C3c4[nH]c5ccccc5c4C4CCCCCCCCCC4C3C2=O)cc1 (stereo not drawn) | > 10 µM | > 10 µM | > 10 µM | > 10 µM | > 10 µM | > 10 µM | > 10 µM | > 10 µM | > 10 µM | > 10 µM | –
COP(=O)(OC)C(Nc1ccc(Cc2ccc(NC(c3ccco3)P(=O)(OC)OC)cc2)cc1)c1ccco1 (stereo not drawn) | 89.9 µM | – | > 100 µM | > 100 µM | > 100 µM | > 100 µM | 16.2 µM | > 100 µM | > 100 µM | > 100 µM | > 100 µM
O=[N+]([O-])c1ccc2c(c1)c(N=NC(=S)Nc1ccc(Cl)cc1)c(O)n2CN1CCOCC1 | 16.4 µM | – | 15.7 µM | 28.4 µM | 21.9 µM | 16.5 µM | 26.4 µM | 15.7 µM | 30.8 µM | 15.7 µM | 26.5 µM
COc1ccc(C2c3cc4c(cc3OC(NCCO)C2C)OCO4)cc1 (stereo not drawn) | 93.1 µM | 66 µM | 31 µM | 59.3 µM | 66.3 µM | 72.6 µM | 40.5 µM | 71.7 µM | > 100 µM | 76.8 µM | 72.4 µM
O=C1c2cccc(O)c2C(=O)c2c(OC3OC(CO)C(O)C(O)C3O)cccc21 (stereo not drawn) | > 100 µM | 59.6 µM | 51 µM | 58.1 µM | 82 µM | 67.6 µM | 58.1 µM | > 100 µM | > 100 µM | > 100 µM | 39.9 µM
Cc1cc(O)c(-c2cc(O)c(C)cc2O)cc1O | 13.7 µM | 27.3 µM | 21.7 µM | > 72.2 µM | 27.6 µM | 37.8 µM | 9.35 µM | 13.6 µM | 6 µM | 5.4 µM | 20.1 µM
O=C1C=CC(=O)C(CNc2ccc(C(=O)OCc3ccccc3)cc2)=C1 | 12.9 µM | 31.6 µM | 18.2 µM | 55.4 µM | 13.4 µM | 21.8 µM | 7.29 µM | 19.3 µM | 19.6 µM | 7.49 µM | 25.2 µM
COc1cc(C(O)c2ccc3c(c2)OCO3)cc(OC)c1OC (stereo not drawn) | > 100 µM | > 100 µM | > 100 µM | > 100 µM | > 100 µM | > 100 µM | > 100 µM | > 100 µM | > 100 µM | > 100 µM | > 100 µM
CON(C)C(=O)C1CCCO1 (stereo not drawn) | > 100 µM | – | > 100 µM | > 100 µM | > 100 µM | > 100 µM | > 100 µM | > 100 µM | > 100 µM | > 100 µM | > 100 µM
CCOC(=O)C1=CC(C)(C(=O)OCC)Nc2c(nc(N)[nH]c2=O)N1 (stereo not drawn) | > 10 µM | > 10 µM | > 10 µM | > 10 µM | > 10 µM | > 10 µM | > 10 µM | > 10 µM | > 10 µM | > 10 µM | > 10 µM
CCOC(=O)C1CCC(=O)N1C(=O)c1ccccc1Cl (stereo not drawn) | > 100 µM | > 100 µM | > 100 µM | > 100 µM | > 100 µM | > 100 µM | > 100 µM | > 100 µM | > 100 µM | > 100 µM | > 100 µM
COc1ccc(OC)c2sc(N3C(=O)/C(=C/c4cccc([N+](=O)[O-])c4)N=C3c3ccccc3)nc12 | > 100 µM | > 100 µM | > 100 µM | > 100 µM | > 100 µM | > 100 µM | > 100 µM | > 100 µM | 95.2 µM | > 100 µM | > 100 µM
O=S1(=O)c2cnccc2NC(=NCc2ccccc2)N1c1ccccc1 | > 100 µM | > 100 µM | > 100 µM | > 100 µM | > 100 µM | > 100 µM | > 100 µM | > 100 µM | > 100 µM | > 100 µM | > 100 µM
COc1cc2[nH]c(-c3ccccc3)cc(=O)c2c(OC)c1OC | > 100 µM | > 100 µM | > 100 µM | > 100 µM | > 100 µM | > 100 µM | – | > 100 µM | > 100 µM | > 100 µM | > 100 µM
c1ccc(C2CC(=NC3CCCCC3)Nc3ccccc3N2)cc1 (stereo not drawn) | > 100 µM | – | > 100 µM | 94.8 µM | > 100 µM | > 100 µM | – | > 100 µM | > 100 µM | > 100 µM | > 100 µM
CC1=NNC(=O)C1C1CC(c2c[nH]c3ccccc23)=NN=C1Cl (stereo not drawn) | > 100 µM | – | > 100 µM | > 100 µM | > 100 µM | > 100 µM | > 100 µM | > 100 µM | > 100 µM | > 100 µM | > 100 µM
N#Cc1c(-c2ccccc2)c2c([nH]c1=O)-c1cc([N+](=O)[O-])ccc1CCC2 | 83.6 µM | 48.2 µM | > 100 µM | > 100 µM | > 100 µM | > 100 µM | 82.5 µM | > 100 µM | > 100 µM | > 100 µM | > 100 µM
O=C1C(C(O)(C(F)(F)F)C(F)(F)F)CCC1C(O)(C(F)(F)F)C(F)(F)F (stereo not drawn) | > 61.5 µM | – | 13.1 µM | 51.9 µM | 98.3 µM | > 100 µM | > 43.5 µM | 30.9 µM | > 100 µM | 34.3 µM | 34.8 µM
COc1cc(/C=C2\CCC(C)/C(=C\c3cc(OC)c(OC)c(OC)c3)C2=O)cc(OC)c1OC (stereo not drawn) | 13.1 µM | – | > 100 µM | > 100 µM | 11.1 µM | 34.4 µM | – | 19.2 µM | > 100 µM | > 100 µM | 21.3 µM
C/C(=N\Nc1nc2ccccc2s1)c1ccc2ccccc2n1 | > 100 µM | – | > 100 µM | > 100 µM | > 100 µM | > 100 µM | > 100 µM | > 100 µM | > 100 µM | > 100 µM | > 100 µM
